Structures can show the parent of a compound that is named as a salt.
Biological target: T1, human IDO1 (Homo sapiens, UniProt P14902)
T1 construct: expressed in transfected cells
Experiment: IDO inhibition assay in HEK293 cells stably expressing human IDO1 (kynurenine production, Ehrlich reagent, absorbance 490 nm)
Type: cell-based
Conditions: 20 hours incubation with compound, 500 nM reference standard = 100% inhibition, read-out: IDO1 HEK Human IC50
Protocol: HEK293 cells were transfected with a pCDNA-based mammalian expression vector harboring human IDO1 cDNA (NM 002164.2) by electroporation. They were cultured in medium (DMEM with 10% FBS) containing 1 mg/ml G418 for two weeks. Clones of HEK293 cells that stably expressed human IDO1 protein were selected and expanded for IDO inhibition assay.
The human IDO1/HEK293 cells were seeded at 10,000 cells per 50 μL per well with RPMI/phenol red free media contains 10% FBS in a 384-well black wall clear bottom tissue culture plate (Matrix Technologies LLC) 100 nL of certain concentration of compound was then added to each well using ECHO liquid handling systems. The cells were incubated for 20 hours in 37° C. incubator with 5% CO2.
The compound treatments were stopped by adding trichloroacetic acid (Sigma-Aldrich) to a final concentration at 0.2%. The cell plate was further incubated at 50° C. for 30 minute. The equal volume supernatant (20 μL) and 0.2% (w/v) Ehrlich reagent (4-dimethylaminobenzaldehyde, Sigma-Aldrich) in glacial acetic acid were mixed in a new clear bottom 384-well plate. This plate was then incubated at RT for 30 minute. The absorbance at 490 nm was measured on Envision plate reader.
Compound IC50 values were calculated using the counts of 500 nM of a reference standard treatment as one hundred percent inhibition, and counts of no compound but DMSO treatment as zero percent inhibition.

T1 sequence (P14902 whole entry): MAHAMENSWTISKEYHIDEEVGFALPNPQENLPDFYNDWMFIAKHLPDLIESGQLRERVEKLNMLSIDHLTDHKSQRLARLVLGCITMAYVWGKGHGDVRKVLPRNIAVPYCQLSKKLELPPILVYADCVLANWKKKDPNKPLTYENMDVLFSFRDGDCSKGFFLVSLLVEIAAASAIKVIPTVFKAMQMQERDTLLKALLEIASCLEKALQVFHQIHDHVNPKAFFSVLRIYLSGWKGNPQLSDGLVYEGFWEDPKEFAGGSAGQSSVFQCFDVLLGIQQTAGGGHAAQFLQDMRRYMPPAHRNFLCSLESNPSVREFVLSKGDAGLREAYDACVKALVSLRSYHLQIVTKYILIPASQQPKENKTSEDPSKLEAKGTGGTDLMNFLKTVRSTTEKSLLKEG

SMILES | IC50 [µM]
CCCN(Cc1ccccc1)c1cc(NC(=O)Nc2ccc(C)cc2)cc(-c2cc(C)ccc2-c2noc(=O)[nH]2)n1 [Example 26, 1-(2-(benzyl(propyl)amino)-6-(5-methyl-2-(5-oxo-4,5-dihydro-1,2,4-oxadiazol-3-yl)phenyl)pyridin-4-yl)-3-(p-tolyl)urea] | 0.0118
CCCN(Cc1ccccc1)c1cc(NC(=O)Nc2ccc(C)cc2)cc(-c2ccccc2S(N)(=O)=O)n1 [Example 27, 2-(6-(benzyl (propyl)amino)-4-(3-(p-tolyl)ureido)pyridin-2-yl) benzene sulfonamide] | 0.607
CCCN(Cc1ccccc1)c1cc(NC(=O)Cc2ccc(C)cc2)cc(-c2ccccc2-c2nc(=O)o[nH]2)n1 [Example 28, N-(2-(benzyl (propyl)amino)-6-(2-(5-oxo-2,5-dihydro-1,2,4-oxadiazol-3-yl)phenyl)pyridin-4-yl)-2-(p-tolyl)acetamide] | 0.0801
CCCN(Cc1ccccc1)c1cc(NC(=O)Cc2ccc(C)cc2)cc(-c2ccccc2C(N)=O)n1 [Example 29] | 0.616
CCCN(Cc1ccccc1)c1cc(NC(=O)Nc2ccc(C)cc2)cc(-c2ccccc2-c2nc(=O)o[nH]2)n1 [Example 31, 1-(2-(benzyl (propyl)amino)-6-(2-(5-oxo-4,5-dihydro-1,2,4-oxadiazol-3-yl)phenyl)pyridin-4-yl)-3-(p-tolyl) urea] | 0.0139
CCCN(Cc1ccccc1)c1cc(NC(=O)Nc2ccc(C)cc2)cc(-c2ccccc2S(=O)(=O)NC(=O)c2ccccc2)n1 [Example 32, N-((2-(6-(benzyl (propyl)amino)-4-(3-(p-tolyl)ureido)pyridin-2-yl)phenyl)sulfonyl) benzamide] | 4.1
CCCN(Cc1ccccc1)c1cc(NC(=O)Cc2ccc(C)cc2)cc(-c2ccccc2S(N)(=O)=O)n1 [Example 33, N-(2-(benzyl (propyl)amino)-6-(2-sulfamoylphenyl)pyridin-4-yl)-2-(p-tolyl) acetamide] | 0.508
CCCN(Cc1ccccc1)c1cc(NC(=O)Cc2ccc(C)cc2)cc(-c2ccccc2S(=O)(=O)NC(C)=O)n1 [Example 34, N-(2-(2-(N-acetylsulfamoyl)phenyl)-6-(benzyl(propyl)amino)pyridin-4-yl)-2-(p-tolyl) acetamide] | 0.237
CCCN(Cc1ccccc1)c1cc(NC(=O)Nc2ccc(C)cc2)cc(-c2ccccc2S(=O)(=O)NC(C)=O)n1 [Example 35, N-((2-(6-(benzyl (propyl)amino)-4-(3-(p-tolyl)ureido)pyridin-2-yl)phenyl)sulfonyl) acetamide] | 0.256
CCCN(Cc1ccccc1)c1cc(NC(=O)Nc2ccccc2C(F)(F)F)cc(-c2ccccc2-c2nnn[nH]2)n1 [Example 36, 1-(2-(2-(1H-tetrazol-5-yl)phenyl)-6-(benzyl(propyl)amino)pyridin-4-yl)-3-(2-(trifluoromethyl)phenyl)urea] | 0.205
CCCN(Cc1ccccc1)c1cc(NC(=O)Nc2ccc(C)nn2)cc(-c2ccccc2-c2nnn[nH]2)n1 [Example 37, 1-(2-(2-(1H-tetrazol-5-yl)phenyl)-6-(benzyl(propyl)amino)pyridin-4-yl)-3-(6-methyl-pyridazin-3-yl) urea] | 3.14
CCCN(Cc1ccccc1)c1cc(NC(=O)Nc2ccc(C)cc2)cc(-c2ccccc2C(N)=O)n1 [Example 38, 2-(6-(benzyl (propyl)amino)-4-(3-(p-tolyl)ureido)pyridin-2-yl) benzamide] | 0.302
CC(C)CN(Cc1ccc(F)cc1)c1cc(Nc2ccc(F)cc2)cc(-c2ccccc2-c2nnn[nH]2)n1 [Example 39, 6-(2-(1H-tetrazol-5-yl)phenyl)-N2-(4-fluorobenzyl)-N4-(4-fluorophenyl)-N2-isobutylpyridine-2,4-diamine] | 0.0024
Cc1cnc(Nc2cc(-c3ccccc3-c3nnn[nH]3)nc(N(Cc3ccc(F)cc3)CC(C)C)c2)nc1 [Example 40, 6-(2-(1H-tetrazol-5-yl)phenyl)-N2-(4-fluorobenzyl)-N2-isobutyl-N4-(5-methylpyrimidin-2-yl)pyridine-2,4-diamine, TFA] | 0.0331
Cc1ccc(Nc2cc(-c3ccccc3-c3nnn[nH]3)nc(N(Cc3ccc(F)cc3)CC(C)C)c2)nn1 [Example 41, 6-(2-(1H-tetrazol-5-yl)phenyl)-N2-(4-fluorobenzyl)-N2-isobutyl-N4-(6-methylpyridazin-3-yl)pyridine-2,4-diamine, TFA] | 0.563
CC(C)CN(Cc1ccc(F)cc1)c1cc(Nc2ccn3nccc3n2)cc(-c2ccccc2-c2nnn[nH]2)n1 [Example 42, 6-(2-(1H-tetrazol-5-yl)phenyl)-N2-(4-fluorobenzyl)-N2-isobutyl-N4-(pyrazolo[1,5-a]pyrimidin-5-yl)pyridine-2,4-diamine, TFA] | 0.12

SMILES | IC50 [µM]
CC(C)CN(Cc1ccc(F)cc1)c1cc(Nc2nc3ccccc3s2)cc(-c2ccccc2-c2nnn[nH]2)n1 [Example 43, 6-(2-(1H-tetrazol-5-yl)phenyl)-N4-(benzo[d]thiazol-2-yl)-N2-(4-fluorobenzyl)-N2-isobutylpyridine-2,4-diamine, TFA] | 0.0312
CC(C)CN(Cc1ccc(F)cc1)c1cc(Nc2ncc(F)cn2)cc(-c2ccccc2-c2nnn[nH]2)n1 [Example 44, 6-(2-(1H-tetrazol-5-yl)phenyl)-N2-(4-fluorobenzyl)-N4-(5-fluoropyrimidin-2-yl)-N2-isobutylpyridine-2,4-diamine, TFA] | 0.0357
Cc1ncccc1Nc1cc(-c2ccccc2-c2nnn[nH]2)nc(N(Cc2ccc(F)cc2)CC(C)C)c1 [Example 45, 6-(2-(1H-tetrazol-5-yl)phenyl)-N2-(4-fluorobenzyl)-N2-isobutyl-N4-(2-methylpyridin-3-yl)pyridine-2,4-diamine, TFA] | 0.239
CC(C)CN(Cc1ccc(F)cc1)c1cc(Nc2ccc3c(c2)OCO3)cc(-c2ccccc2-c2nnn[nH]2)n1 [Example 46, 6-(2-(1H-tetrazol-5-yl)phenyl)-N4-(benzo[d][1,3]dioxol-5-yl)-N2-(4-fluorobenzyl)-N2-isobutylpyridine-2,4-diamine] | 0.0011
CC(C)CN(Cc1ccc(F)cc1)c1cc(Nc2cccc(C(F)F)n2)cc(-c2ccccc2-c2nnn[nH]2)n1 [Example 47, 6-(2-(1H-tetrazol-5-y1)phenyl)-N4-(6-(difluoromethyl)pyridin-2-yl)-N2-(4-fluorobenzyl)-N2-isobutylpyridine-2,4-diamine] | 0.0172
CC(C)CN(Cc1ccc(F)cc1)c1cc(Nc2ccc(F)cn2)cc(-c2ccccc2-c2nnn[nH]2)n1 [Example 48, 6-(2-(1H-tetrazol-5-yl)phenyl)-N2-(4-fluorobenzyl)-N4-(5-fluoropyridin-2-yl)-N2-isobutylpyridine-2,4-diamine] | 0.0107
Cc1cnc(Nc2cc(-c3ccccc3-c3nnn[nH]3)nc(N(Cc3ccccc3)CC(C)C)c2)cn1 [Example 49, 6-(2-(1H-tetrazol-5-yl)phenyl)-N2-benzyl-N2-isobutyl-N4-(5-methylpyrazin-2-yl)pyridine-2,4-diamine, TFA] | 0.0316
CC(C)CN(Cc1ccccc1)c1cc(Nc2ccn3nccc3n2)cc(-c2ccccc2-c2nnn[nH]2)n1 [Example 50, 6-(2-(1H-tetrazol-5-y1)phenyl)-N2-benzyl-N2-isobutyl-N4-(pyrazolo[1,5-a]pyrimidin-5-yl)pyridine-2,4-diamine] | 0.131
Cc1cnc(Nc2cc(-c3ccccc3-c3nnn[nH]3)nc(N(Cc3ccccc3)CC(C)C)c2)nc1 [Example 51, 6-(2-(1H-tetrazol-5-yl)phenyl)-N2-benzyl-N2-isobutyl-N4-(5-methylpyrimidin-2-yl)pyridine-2,4-diamine] | 0.0603
CC(C)CN(Cc1ccccc1)c1cc(Nc2nnc(-c3ccccc3)s2)cc(-c2ccccc2-c2nnn[nH]2)n1 [Example 52, 6-(2-(1H-tetrazol-5-yl)phenyl)-N2-benzyl-N2-isobutyl-N4-(5-phenyl-1,3,4-thiadiazol-2-yl)pyridine-2,4-diamine] | 0.191
CC(C)CN(Cc1ccccc1)c1cc(Nc2nccc(N3CCOCC3)n2)cc(-c2ccccc2-c2nnn[nH]2)n1 [Example 53, 6-(2-(1H-tetrazol-5-yl)phenyl)-N2-benzyl-N2-isobutyl-N4-(4-morpholinopyrimidin-2-yl)pyridine-2,4-diamine, TFA] | 0.0049
CC(C)CN(Cc1ccccc1)c1cc(Nc2ncc(F)cn2)cc(-c2ccccc2-c2nnn[nH]2)n1 [Example 55, 6-(2-(1H-tetrazol-5-yl)phenyl)-N2-benzyl-N4-(5-fluoropyrimidin-2-yl)-N2-isobutylpyridine-2,4-diamine, 1.5 TFA] | 0.0115
CC(C)CN(Cc1ccccc1)c1cc(Nc2ccc(F)cc2F)cc(-c2ccccc2-c2nnn[nH]2)n1 [Example 56, 6-(2-(1H-tetrazol-5-yl)phenyl)-N2-benzyl-N4-(2,4-difluorophenyl)-N2-isobutylpyridine-2,4-diamine] | 0.0086
CC(C)CN(Cc1ccccc1)c1cc(Nc2ccc3c(c2)OCO3)cc(-c2ccccc2-c2nnn[nH]2)n1 [Example 57, 6-(2-(1H-tetrazol-5-yl)phenyl)-N4-(benzo[d][1,3]dioxol-5-yl)-N2-benzyl-N2-isobutylpyridine-2,4-diamine] | 0.004
CCCN(Cc1ccccc1)c1cc(Nc2ccc3nc(C)sc3c2)cc(-c2ccccc2-c2nnn[nH]2)n1 [Example 58, 6-(2-(1H-tetrazol-5-yl)phenyl)-N2-benzyl-N4-(2-methylbenzo [d]thiazol-6-yl)-N2-propylpyridine-2,4-diamine] | 0.0042

Reference: US12059420B2 (BRISTOL-MYERS SQUIBB COMPANY, priority 2018, dated 2024)
